In patent US20240210394A1, “MICROORGANISM CAPTURE FROM ANTIMICROBIAL-CONTAINING SOLUTION” (MOMENTUM BIOSCIENCE LIMITED, priority 2019, published 2024):

Experiments:
E. coli = experiment: TVC viability of E. coli in whole blood with SPS over time; assay type: cell-based
Protocol: 2×5 mL whole blood or BacTec PLUS aerobic blood broth (1:3 ratio) aliquoted for each sample-set (E. coli and NSC sample). Then SPS added as follows:
Then 5 μL of E. coli 1E-2 preculture added to each 5-mL specimen tube to recreate standard 1E-5 dilution sample
• 1.88 μL neat o/n in Nutrient Broth (NB) added to 3 mL NB; and incubated for 2 hours at 37° C., 500 rpm • After 2 hours, E. coli preculture diluted 10-fold in warm NB; and then 5 μL added to each 5 mL specimen tube (prepared as shown in test conditions) • Magnitor Test initiated immediately, and TVCs performed as detailed below.
• 100 μL on COL plates at Time Zero • Sample bijous, containing approximately 2 mL sample, left at room temperature (20.4° C.) on bench (static) • TVCs performed at time points shown in table: samples mixed thoroughly before plating

S. aureus = experiment: Blood culture time to positivity (flip time), bead rescue vs no-rescue control; assay type: cell-based; conditions: for Flip time: Bead rescue; for Flip time in hours/mins: 2 h at 37° C.; for Time to positivity in days: 900 cfu/5 ml
Protocol: An overnight culture of test organism was prepared in blood/broth medium (50:50 blood:broth medium from a BioMerieux SA culture bottle).
Ten-fold serial dilutions of overnight culture was prepared in blood/broth as required.
Antibiotic (abx) was added to whole human blood (in citrate-phosphate-dextrose, CPD, an anticoagulant) at required level.
Whole blood was used as the no-antibiotic control.
Test dilution(s) of organism was added to blood+antibiotic or blood only at 10 μL per mL of blood (sufficient prepared for experiment requirements). 100 μL plate count sample was taken (TO sample).
The inoculated samples were incubated at 37° C. (static) for 2-hour. 100 μL plate count sample was taken (T2 sample).
For the control, 5 mL of spiked blood+abx or blood only was added to blood culture bottles (BioMerieux SA culture bottle) using a vial adapter (West Pharmaceutical Services, Inc. PA, US) and incubated in the automated blood culture cabinet (adapter removed).
For the ‘rescue’ test, 5 mL of spiked blood+abx or blood only was treated with Momentum Capture Beads (Streptavidin-coated, −300 nm beads, Bio estapor, Merk Cat #BE-M 08/0.3) as below: • Momentum Capture Beads diluted in Detergent-free Microbial Binding Buffer (DMBB—Tris+NaCl)—50 μL beads:700 μL DMBB per clean-up • 750 μL of diluted beads added to 50 mL conical centrifuge tube • 5 mL of broth medium added to tube • 5 mL of spiked blood+abx or blood only added to tube • Incubate on ITL TherMix (Integrated Technologies Ltd. Kent, UK), 32.5° C./30 min/1000 rpm—ramped speed protocol • Magnetise on V&P magnet (V&P scientific Inc, CA, US) for 5 min then remove supernatant • Resuspend beads in 1 mL Detergent-free Wash Buffer (DWB—Tris+NaCl) off magnet and transfer to 2 mL Eppendorf flip-top tube on DynaMag-2 magnet (Thermo Fisher Scientific, Life Technologies Ltd. Paisley, UK) • Magnetise for 5 min then remove supernatant • Resuspend beads in 1 mL DWB off magnet then replace on DynaMag-2 magnet • Magnetise for 5 min then remove supernatant • Resuspend beads in 1 mL DWB, add to a fresh, unused blood culture bottle (BioMerieux SA culture bottle) containing standard blood culture growth medium using a vial adapter, and start incubation (adapter removed). • Blood culture bottles are incubated in the automated blood culture cabinet (BacT/ALERT BioMerieux) which records time to positivity. The “Flip” time is when a bottle turns positive as determined by the automated blood culture cabinet. • “Flip” time of each bottle is recorded. • Plate counts (Total Viable Count TVC) are recorded.
Day 1: Prepare overnight culture of test organism in blood/broth medium (50:50 blood:broth) and incubate at 37° C. in a shaking incubator.
Day 2: Prepare ten-fold serial dilution of overnight culture in blood/broth as required • Antibiotic added to whole blood (defibrinated horse blood) at required level • Whole blood as no-antibiotic control • Test dilution(s) of organism added to blood+antibiotic or blood only at 10 μL per mL of blood (sufficient prepared for experiment requirements) • 100 μL plate count sample taken (TO sample) • 2-hour incubation at 37° C. (static), to mimic organism exposure to antimicrobials in the patient • 100 μL plate count sample taken (T2 sample) • 5 mL of spiked blood+abx or blood only added to blood culture bottle (using vial adapter) and incubation started (adapter removed) • 5 mL of spiked blood+abx or blood only (from same source) treated with Momentum Capture Beads as below: • 1. Momentum Capture Beads diluted in Detergent-free Microbial Binding Buffer (DMBB)—50 μL beads:700 μL DMBB per clean-up • 2. 750 μL of diluted beads added to 50 mL conical centrifuge tube • 3. 5 mL of transfer medium added to tube • 4. 5 mL of spiked blood+abx or blood only added to tube • 5.

## Sodium polyanethol sulfonate [SPS]
E. coli; WB SPS 0.01 %
  FOLD INCR. 0-2 hr: 3.39
E. coli; WB SPS 0.01 %, EC Time 2 hrs
  TVC colonies: 498 colonies
E. coli; WB SPS 0.01 %, EC Time 4 hrs
  TVC colonies: TNTC
E. coli; WB SPS 0.01 %, EC Time 6 hrs
  TVC colonies: TNTC
E. coli; WB SPS 0.01 %, EC Time 21 hrs
  TVC colonies: LAWN
E. coli; WB SPS 0.01 %, EC Time ZERO
  TVC colonies: 147 colonies
E. coli; WB SPS 0.02 %
  FOLD INCR. 0-2 hr: 4.67
E. coli; WB SPS 0.02 %, EC Time 2 hrs
  TVC colonies: 448 colonies
E. coli; WB SPS 0.02 %, EC Time 4 hrs
  TVC colonies: TNTC
E. coli; WB SPS 0.02 %, EC Time 6 hrs
  TVC colonies: TNTC
E. coli; WB SPS 0.02 %, EC Time 21 hrs
  TVC colonies: LAWN
E. coli; WB SPS 0.02 %, EC Time ZERO
  TVC colonies: 96 colonies
E. coli; WB SPS 0.04 %
  FOLD INCR. 0-2 hr: 3.12
E. coli; WB SPS 0.04 %, EC Time 2 hrs
  TVC colonies: 1106 colonies
E. coli; WB SPS 0.04 %, EC Time 4 hrs
  TVC colonies: TNTC
E. coli; WB SPS 0.04 %, EC Time 6 hrs
  TVC colonies: TNTC
E. coli; WB SPS 0.04 %, EC Time 21 hrs
  TVC colonies: LAWN
E. coli; WB SPS 0.04 %, EC Time ZERO
  TVC colonies: 354 colonies
E. coli; WB SPS 0.06 %
  FOLD INCR. 0-2 hr: 5.94
E. coli; WB SPS 0.06 %, EC Time 2 hrs
  TVC colonies: 760 colonies
E. coli; WB SPS 0.06 %, EC Time 4 hrs
  TVC colonies: TNTC
E. coli; WB SPS 0.06 %, EC Time 6 hrs
  TVC colonies: TNTC
E. coli; WB SPS 0.06 %, EC Time 21 hrs
  TVC colonies: LAWN
E. coli; WB SPS 0.06 %, EC Time ZERO
  TVC colonies: 128 colonies
E. coli; WB SPS 0.08 %
  FOLD INCR. 0-2 hr: 1.52
E. coli; WB SPS 0.08 %, EC Time 2 hrs
  TVC colonies: 491 colonies
E. coli; WB SPS 0.08 %, EC Time 4 hrs
  TVC colonies: TNTC
E. coli; WB SPS 0.08 %, EC Time 6 hrs
  TVC colonies: TNTC
E. coli; WB SPS 0.08 %, EC Time 21 hrs
  TVC colonies: LAWN
E. coli; WB SPS 0.08 %, EC Time ZERO
  TVC colonies: 322 colonies
E. coli; WB SPS 0.1 %
  FOLD INCR. 0-2 hr: 2.71
E. coli; WB SPS 0.1 %, EC Time 2 hrs
  TVC colonies: 341 colonies
E. coli; WB SPS 0.1 %, EC Time 4 hrs
  TVC colonies: TNTC
E. coli; WB SPS 0.1 %, EC Time 6 hrs
  TVC colonies: TNTC
E. coli; WB SPS 0.1 %, EC Time 21 hrs
  TVC colonies: LAWN
E. coli; WB SPS 0.1 %, EC Time ZERO
  TVC colonies: 126 colonies

## CCN1CCN(C(=O)N[C@@H](C(=O)N[C@@H]2C(=O)N3[C@@H]2SC(C)(C)[C@@H]3C(=O)O)c2ccccc2)C(=O)C1=O [Piperacillin]
S. aureus; Piperacillin 96 ug/mL blood, CPD human blood, 750 cfu/5 mL
  Flip time: 0.62 days
S. aureus; Piperacillin 96 ug/mL blood, CPD human blood, 5000 cfu/5 mL
  Flip time: 0.57 days
S. aureus; Piperacillin 96 ug/mL blood, defibrinated horse blood, 5000 cfu/5 ml
  Flip time: 0.78 days
S. aureus; Piperacillin 96 ug/mL blood, defibrinated horse blood, 50000 cfu/5 ml
  Flip time: 0.65 days
S. aureus; S. aureus spike dil 10-3, Piperacillin 96 ug/ml human blood, SA bottle
  Flip time: 0.57 days
S. aureus; S. aureus spike dil 10-4, Piperacillin 96 ug/ml human blood, SA bottle
  Flip time: 0.62 days
S. aureus; Control (no bead rescue), Piperacillin 96 ug/mL blood, CPD human blood, 750 cfu/5 mL
  Flip time in Days: Neg
S. aureus; Control (no bead rescue), Piperacillin 96 ug/mL blood, CPD human blood, 5000 cfu/5 mL
  Flip time in Days: Neg
S. aureus; Control (no bead rescue), Piperacillin 96 ug/mL blood, defibrinated horse blood, 5000 cfu/5 ml
  Flip time in Days: Neg
S. aureus; Control (no bead rescue), Piperacillin 96 ug/mL blood, defibrinated horse blood, 50000 cfu/5 ml
  Flip time in Days: Neg
S. aureus; Control (no bead rescue), S. aureus spike dil 10-3, Piperacillin 96 ug/ml human blood, SA bottle
  Flip time in hours/mins: Negative at 120 h
S. aureus; Control (no bead rescue), S. aureus spike dil 10-4, Piperacillin 96 ug/ml human blood, SA bottle
  Flip time in hours/mins: Negative at 120 h
S. aureus; No bead rescue Control BC, Piperacillin 96 ug/mL blood, 10000 cfu/5 mL
  Flip time in Days: Neg
S. aureus; No bead rescue Control BC, Piperacillin 96 ug/mL blood, 50000 cfu/5 mL
  Flip time in Days: Neg
S. aureus; Piperacillin 96 ug/mL blood, Control (no beads)
  Time to positivity in days: Neg
S. aureus; Piperacillin 96 ug/mL blood, with magnetic beads in the bottle
  Time to positivity in days: Neg
